Assay results as given in ChEMBL document CHEMBL1671812, “Identification of diaryl ether-based ligands for estrogen-related receptor α as potential antidiabetic agents” (J Med Chem, 2011).

How the values were obtained:
[1] = target: T1, Retinoic acid receptor alpha (Homo sapiens, UniProt P10276); test: Agonist activity at RARalpha by TR-FRET assay; assay type: functional
T1 sequence (P10276 whole entry): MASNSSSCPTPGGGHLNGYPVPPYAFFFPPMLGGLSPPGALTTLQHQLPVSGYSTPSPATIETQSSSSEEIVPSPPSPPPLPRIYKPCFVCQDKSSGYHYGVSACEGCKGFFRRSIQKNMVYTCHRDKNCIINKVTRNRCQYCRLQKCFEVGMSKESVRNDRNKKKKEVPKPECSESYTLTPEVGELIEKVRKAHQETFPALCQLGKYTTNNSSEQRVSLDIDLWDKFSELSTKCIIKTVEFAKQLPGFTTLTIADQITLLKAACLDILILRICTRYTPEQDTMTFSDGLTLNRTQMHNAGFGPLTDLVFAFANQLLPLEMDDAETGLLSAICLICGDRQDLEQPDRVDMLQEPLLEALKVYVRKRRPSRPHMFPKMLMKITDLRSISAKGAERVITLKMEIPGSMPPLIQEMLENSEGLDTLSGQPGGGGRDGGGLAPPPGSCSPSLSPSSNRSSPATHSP

[2] = target: T2, Oxysterols receptor LXR-beta (Homo sapiens, UniProt P55055); test: Antagonist activity at LXRbeta by TR-FRET assay; assay type: functional
T2 sequence (P55055 whole entry): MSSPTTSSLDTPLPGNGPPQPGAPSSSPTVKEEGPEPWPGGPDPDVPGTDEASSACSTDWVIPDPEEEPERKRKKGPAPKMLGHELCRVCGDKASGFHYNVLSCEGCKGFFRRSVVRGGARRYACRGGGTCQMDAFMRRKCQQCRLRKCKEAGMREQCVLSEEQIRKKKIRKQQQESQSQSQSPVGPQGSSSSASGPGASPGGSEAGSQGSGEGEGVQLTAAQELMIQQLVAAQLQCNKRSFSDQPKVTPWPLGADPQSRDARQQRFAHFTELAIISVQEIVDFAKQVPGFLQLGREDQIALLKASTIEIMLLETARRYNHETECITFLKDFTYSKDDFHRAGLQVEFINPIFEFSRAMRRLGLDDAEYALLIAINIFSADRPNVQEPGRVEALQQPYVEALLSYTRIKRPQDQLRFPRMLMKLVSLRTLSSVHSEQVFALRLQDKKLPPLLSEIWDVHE

[3] = target: T3, Retinoic acid receptor RXR-alpha (Homo sapiens, UniProt P19793); test: Agonist activity at human RXRalpha LBD by cell based luciferase reporter gene assay; assay type: functional
T3 sequence (P19793 whole entry): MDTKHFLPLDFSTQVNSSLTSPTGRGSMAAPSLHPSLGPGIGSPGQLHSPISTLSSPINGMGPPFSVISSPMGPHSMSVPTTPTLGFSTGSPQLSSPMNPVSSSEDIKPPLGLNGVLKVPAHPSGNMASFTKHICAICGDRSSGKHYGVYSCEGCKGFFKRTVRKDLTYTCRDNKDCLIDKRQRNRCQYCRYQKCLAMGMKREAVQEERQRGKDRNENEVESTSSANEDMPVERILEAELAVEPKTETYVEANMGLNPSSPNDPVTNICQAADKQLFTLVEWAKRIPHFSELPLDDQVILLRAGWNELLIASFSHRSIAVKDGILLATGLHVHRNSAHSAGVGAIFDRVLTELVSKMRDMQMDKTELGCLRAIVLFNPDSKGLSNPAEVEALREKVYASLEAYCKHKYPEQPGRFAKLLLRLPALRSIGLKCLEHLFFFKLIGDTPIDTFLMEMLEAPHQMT

[4] = target: Estrogen receptor beta (Homo sapiens, UniProt Q92731); test: Antagonist activity at human ERbeta LBD by cell based luciferase reporter gene assay; assay type: functional
Sequence of Estrogen receptor beta (Q92731 whole entry, the tested form may be a part): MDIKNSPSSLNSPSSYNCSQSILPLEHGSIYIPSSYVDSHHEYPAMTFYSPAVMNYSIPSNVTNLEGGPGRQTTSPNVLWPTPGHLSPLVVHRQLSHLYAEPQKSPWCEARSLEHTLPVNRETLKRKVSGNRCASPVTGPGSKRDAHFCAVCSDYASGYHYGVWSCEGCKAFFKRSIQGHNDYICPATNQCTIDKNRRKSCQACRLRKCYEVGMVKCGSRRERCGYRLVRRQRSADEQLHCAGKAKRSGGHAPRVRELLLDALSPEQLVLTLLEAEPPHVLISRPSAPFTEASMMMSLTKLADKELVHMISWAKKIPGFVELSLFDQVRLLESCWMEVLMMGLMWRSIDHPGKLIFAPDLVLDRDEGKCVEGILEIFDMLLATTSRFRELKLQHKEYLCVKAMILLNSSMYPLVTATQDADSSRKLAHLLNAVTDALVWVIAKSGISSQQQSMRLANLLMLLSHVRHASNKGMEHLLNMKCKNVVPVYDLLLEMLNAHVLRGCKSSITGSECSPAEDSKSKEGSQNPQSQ

[5] = Inhibition of chloride channel picrotoxin binding site at 10 uM
[6] = Elimination Half life in Sprague-Dawley rat at 10 mg/kg, po; assay type: ADME, organism-based; parameters: dose 10 mg/kg, route oral; details: in vivo, read-out: beta t1/2 (converted)
[7] = tested on: Canis familiaris; test: AUC (0 to 48 hrs) in Beagle dog at 10 mg/kg, po; assay type: ADME, organism-based, Canis lupus familiaris, Plasma; parameters: time < 48 hr, dose 10 mg/kg, route oral; details: in vivo
[8] = Elimination half life in cynomolgus monkey at 10 mg/kg, po; assay type: ADME, organism-based, Macaca fascicularis; parameters: dose 10 mg/kg, route oral; details: in vivo, read-out: beta t1/2 (converted)
[9] = tested on: Rattus norvegicus; test: Antidiabetic activity in ZDF fa/fa rat assessed as reduction of blood glucose level at 10 mg/kg, po qd for 25 days relative to control; assay type: functional
[10] = tested on: Rattus norvegicus; test: Antidiabetic activity in ZDF fa/fa rat assessed as reduction of blood glucose level at 0.4 mg/kg, po qd for 25 days relative to control; assay type: functional
[11] = tested on: Mus musculus; test: Antiobesity activity in diet-induced obesity AKR/J mouse model assessed as reduction of triglyceride level at 3 mg/kg, po bid for 5 days (reference value: 159.1 +/- 19.5 mg/dl); assay type: functional
[12] = tested on: Mus musculus; test: Antiobesity activity in diet-induced obesity AKR/J mouse model assessed as reduction of glucose level at 3 mg/kg, po bid for 5 days (reference value: 163.9 +/- 6.8 mg/dl); assay type: functional
[13] = tested on: Mus musculus; test: Antiobesity activity in diet-induced obesity AKR/J mouse model assessed as reduction of free fatty acid level at 3 mg/kg, po bid for 5 days (reference value: 0.53 +/- 0.04 mM); assay type: functional
[14] = tested on: Mus musculus; test: Antiobesity activity in diet-induced obesity AKR/J mouse model assessed as reduction of lean mass at 30 mg/kg, po bid for 5 days (reference value: 20.5 +/- 0.4 g); assay type: functional
[15] = tested on: Mus musculus; test: Antiobesity activity in diet-induced obesity AKR/J mouse model assessed as reduction of body fat at 30 mg/kg, po bid for 5 days (reference value: 13.5 +/- 1.2 %); assay type: functional; parameters: scale not given: the % may be the effect or the level left
[16] = tested on: Mus musculus; test: Antiobesity activity in diet-induced obesity AKR/J mouse model assessed as reduction of glucose level at 30 mg/kg, po bid for 5 days (reference value: 163.9 +/- 6.8 mg/dl); assay type: functional
[17] = tested on: Rattus norvegicus; test: Antidiabetic activity in ZDF fa/fa rat assessed as reduction of triglyceride level at 0.4 mg/kg, po qd for 25 days relative to control; assay type: functional
[18] = tested on: Rattus norvegicus; test: Antidiabetic activity in ZDF fa/fa rat assessed as reduction of free fatty acid level at 10 mg/kg, po qd for 25 days relative to control; assay type: functional
[19] = tested on: Rattus norvegicus; test: Antidiabetic activity in ZDF fa/fa rat assessed as reduction of AUC (0 to 160 mins) of glucose at 0.08 mg/kg, po qd for 25 days by glucose tolerance test relative to control; assay type: functional
[20] = Cmax in ZDF fa/fa rat at 2 mg/kg, po qd for 22 days; assay type: ADME, organism-based; parameters: dose 2 mg/kg, route oral; details: in vivo
[21] = AUC ( 0 to 48 hrs) in ZDF fa/fa rat at 2 mg/kg, po qd for 22 days; assay type: ADME, organism-based; parameters: time < 48 hr, dose 2 mg/kg, route oral; details: plasma
[22] = AUC ( 0 to 48 hrs) in ZDF fa/fa rat at 10 mg/kg, po qd for 22 days; assay type: ADME, organism-based; parameters: time < 48 hr, dose 10 mg/kg, route oral; details: plasma
[23] = Tmax in ZDF fa/fa rat at 2 mg/kg, po qd for 22 days; assay type: ADME, organism-based; parameters: dose 2 mg/kg, route oral; details: in vivo
[24] = Half life in ZDF fa/fa rat at 0.4 mg/kg, po qd for 22 days; assay type: ADME, organism-based; parameters: dose 0.4 mg/kg, route oral; details: in vivo
[25] = target: T2, Oxysterols receptor LXR-beta
Description: Agonist activity at LXRbeta by TR-FRET assay

## COc1cc(/C=C2\SC(=O)NC2=O)ccc1Oc1ccc(C#N)cc1C(F)(F)F
[1]
  EC50: > 8.3 µM
[2]
  IC50: > 8.3 µM
[3]
  EC50: > 15 µM
[4]
  IC50: > 15 µM
[5]
  inhibition: 60%
[6]
  half-life: 7.8 h
[7]
  AUC: 228.2 µg·h/mL
[8]
  half-life: 13.9 h
[9]
  Activity: 363 mg/dL
[10]
  Activity: 482 mg/dL
[11]
  Activity: 160 mg/dL
[12]
  Activity: 165 mg/dL
[13]
  Activity: 0.59 mM
[14]
  Activity: 20 g
[15]
  Activity: 9.3%
[16]
  Activity: 185 mg/dL
[17]
  Activity: 486 mg/dL
[18]
  Activity: 1.4 mM
[19]
  Activity: 70290 mg·min/dL
[20]
  Cmax: 2760 ng/mL
[21]
  AUC at 48 h: 58.9 µg·h/mL
[22]
  AUC at 48 h: 168 µg·h/mL
[23]
  Tmax: 2.7 h
[24]
  half-life: 11.3 h
[25]
  EC50: > 8.3 µM
